Where a name gives a salt, the structure may show the parent alone. Read-outs that look alike come from different tables or passages of the source.
How the values were obtained:
[1] = biological target: HDAC6 human recombinant enzyme (Homo sapiens (Human), UniProt Q9UBN7); test: Histone Deacetylase Assay (BPS Biosciences), HDAC6; format: biochemical
Excerpt: Histone Deacetylase Assay (BPS Biosciences)
Histone deacetylase assay was done as per manufacturer's instructions.

LSD1 = LSD1 (Homo sapiens (Human), UniProt O60341); test: TR-FRET Assay for LSD1
Method: TR-FRET Assay for LSD1 (Perkin Elmer)
Tranylcypromine (TCP), LSD1 inhibitor was procured from Selleckchem. […] Stop Solution containing 300 μM tranylcypromine in 1× LANCE Detection Buffer was added to the wells and incubated for 5 min at RT. Then, Detection mix containing 2 nM Eu-Ab and 50 nM ULight-Streptavidin in 1× LANCE Detection Buffer was prepared and added to the reaction mix. This mixture was incubated for 1 hour at room temperature.

[2] = Metabolic stability in liver microsomes, HLM; details: 1 μM, NADPH
Method: (§1) The microsomal suspension was prepared by adding liver microsomes to 100 mM potassium phosphate buffer (pH7.4) to give a final protein concentration of 0.5 mg/mL. The stock solution of NCE (10 mM in DMSO) was added to the microsomes to provide a final concentration of 1 μM. […] Samples were vortexed and centrifuged at 5,000 rpm for 10 min to remove proteins. Supernatant were analyzed on LC-MS/MS.

[3] = Metabolic stability in liver microsomes, MLM; details: 1 μM, NADPH
Method: as §1

MM1S = test: Anticancer activity: Alamar Blue assay, MM1S; format: cell-based; details: Homo sapiens, MM1.S, read-out: MM1S EC50
Method: Cells were seeded at 5000 cells/per well in 96-well tissue culture plate and incubated at 37° C./5% CO2. After 16-24 hours, fresh media was added to the wells. Compounds were then (1% DMSO conc.) added to the cells at 10 concentrations ranging from 10-0.0005 uM prepared in 3-fold serial dilutions. Cells were incubated for 68-72 h at 37° C./5% CO2. Alamar Blue™ reagent was added and incubated for 1-3 hours at 37° C./5% CO2. Plates were read on fluorescence reader at 540 nm excitation, 590 nm emission wave lengths.

Sequence of HDAC6 human recombinant enzyme (Q9UBN7 whole entry): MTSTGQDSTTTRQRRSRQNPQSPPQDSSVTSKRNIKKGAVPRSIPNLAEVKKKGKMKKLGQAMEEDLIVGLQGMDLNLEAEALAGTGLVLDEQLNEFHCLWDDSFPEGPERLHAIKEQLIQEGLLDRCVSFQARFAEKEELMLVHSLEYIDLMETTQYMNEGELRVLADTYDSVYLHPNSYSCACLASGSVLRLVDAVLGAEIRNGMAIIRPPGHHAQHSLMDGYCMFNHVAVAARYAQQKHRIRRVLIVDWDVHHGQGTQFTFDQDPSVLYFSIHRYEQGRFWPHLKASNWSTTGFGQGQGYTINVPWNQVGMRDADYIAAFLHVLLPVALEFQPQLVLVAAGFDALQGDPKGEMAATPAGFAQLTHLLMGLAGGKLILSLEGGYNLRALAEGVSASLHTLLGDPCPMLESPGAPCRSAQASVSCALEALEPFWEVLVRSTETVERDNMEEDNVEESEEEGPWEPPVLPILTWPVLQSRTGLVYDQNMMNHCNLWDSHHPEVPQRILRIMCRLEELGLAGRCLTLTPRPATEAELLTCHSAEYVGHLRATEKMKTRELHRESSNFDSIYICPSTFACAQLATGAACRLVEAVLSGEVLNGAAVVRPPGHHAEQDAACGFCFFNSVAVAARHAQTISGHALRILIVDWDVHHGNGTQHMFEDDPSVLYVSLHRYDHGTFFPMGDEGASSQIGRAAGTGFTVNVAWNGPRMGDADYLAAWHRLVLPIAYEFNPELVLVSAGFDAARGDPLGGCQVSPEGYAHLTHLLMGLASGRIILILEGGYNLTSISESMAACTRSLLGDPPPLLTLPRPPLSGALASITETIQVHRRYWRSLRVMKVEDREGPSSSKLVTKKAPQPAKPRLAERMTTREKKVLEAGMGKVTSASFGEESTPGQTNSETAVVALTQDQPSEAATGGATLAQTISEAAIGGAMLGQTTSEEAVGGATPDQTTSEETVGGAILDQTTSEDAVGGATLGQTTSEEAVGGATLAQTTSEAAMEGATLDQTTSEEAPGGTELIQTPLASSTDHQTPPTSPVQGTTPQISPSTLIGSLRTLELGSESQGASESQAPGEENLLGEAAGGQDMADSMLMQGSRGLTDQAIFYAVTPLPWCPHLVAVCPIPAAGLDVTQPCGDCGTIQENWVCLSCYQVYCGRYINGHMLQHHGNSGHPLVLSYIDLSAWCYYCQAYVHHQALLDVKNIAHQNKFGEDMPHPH

EC50 (MM1S; MM1S cells)	IC50 (LSD1)	Structure (SMILES)	IC50 [1]	IC50 (LSD1; read-out: LSD1 IC50)	Metabolic stability HLM % remaining in 30 min [2]	Metabolic stability MLM % remaining in 30 min [3]	EC50 (MM1S)
–	–	O=C(NO)c1cccc(CNC2CC2c2ccccc2)c1 (stereo not drawn) [Example 27, N-hydroxy-3-(((2-phenylcyclopropyl)amino)methyl)benzamide TFA]	> 1000 nM	16 nM	75%	51%	–
94 nM	–	CC(NC1CC1c1ccccc1)[C@H]1CC[C@H](C(=O)NO)CC1 (stereo partly drawn) [Example 34, (1S,4R)—N-hydroxy-4-((1S)-1-((2-phenylcyclopropyl)amino)ethyl)cyclohexanecarboxamide TFA Salt]	> 1000 nM	31 nM	90%	79%	–
–	–	O=C(NO)c1ccc(CCCN2CCC(NC3CC3c3ccccc3)CC2)cc1 (stereo not drawn) [Example 44, N-hydroxy-4-(3-(4-((2-phenylcyclopropyl)amino)piperidin-1-yl)propyl)benzamide TFA Salt]	65 nM	13 nM	71%	55%	45 nM
25 nM	–	O=C(NO)c1ccc(CCCN2CC(CNC3CC3c3ccc(F)cc3)C2)cc1 (stereo not drawn) [Example 48, 4-(3-(3-(((2-(4-fluorophenyl)cyclopropyl)amino)methyl)azetidin-1-yl)propyl)-N-hydroxy benzamide TFA Salt]	184 nM	29 nM	85%	< 5%	–
–	–	CN(C)CCNC(=O)c1ccc(C2CC2NCC2CCN(CCCc3ccc(C(=O)NO)cc3)CC2)cc1 (stereo not drawn) [Example 55, N-(2-(dimethylamino)ethyl)-4-(2-(((1-(3-(4-(hydroxycarbamoyl)phenyl)propyl)piperidin-4-yl)methyl)amino)cyclopropyl)benzamide TFA Salt]	130 nM	22 nM	40%	36%	–
–	–	O=C(NO)c1ccc(CCCN2CC(CNC3CC3c3ccc(-c4ccc(F)cc4)cc3)C2)cc1 (stereo not drawn) [Example 58, 4-(3-(3-(((2-(4′-fluoro-[1,1′-biphenyl]-4-yl)cyclopropyl)amino)methyl)azetidin-1-yl)propyl)-N-hydroxybenzamide TFA Salt]	43 nM	25 nM	85%	91%	15 nM
–	–	Cn1ccc(-c2ccc(C3CC3NCC3CCN(CCCc4ccc(C(=O)NO)cc4)CC3)cc2)cc1=O (stereo not drawn) [Example 60, N-hydroxy-4-(3-(4-(((2-(4-(1-methyl-2-oxo-1,2-dihydropyridin-4-yl)phenyl)cyclopropyl)amino)methyl)piperidin-1-yl)propyl)benzamide TFA Salt]	46 nM	21 nM	73%	72%	–
7 nM	–	Cn1cc(-c2ccc(C3CC3NCC3CCN(CCCc4ccc(C(=O)NO)cc4)CC3)cc2)cn1 (stereo not drawn) [Example 62, N-hydroxy-4-(3-(4-(((2-(4-(1-methyl-1H-pyrazol-4-yl)phenyl)cyclopropyl)amino)methyl)piperidin-1-yl)propyl) benzamide TFA Salt]	66 nM	43 nM	77%	66%	–
11 nM	59 nM	Cc1noc(C)c1-c1ccc(C2CC2NCC2CCN(CCCc3ccc(C(=O)NO)cc3)CC2)cc1.O=C(O)C(F)(F)F (stereo not drawn) [Example 64, 4-(3-(4-(((2-(4-(3,5-dimethylisoxazol-4-yl)phenyl)cyclopropyl)amino)methyl)piperidin-1-yl)propyl)-N-hydroxybenzamide TFA Salt]	58 nM	–	82%	77%	–
–	–	O=C(NO)c1ccc(CCCN2CCC(CNC3CC3c3ccc(-c4ccc(C(F)(F)F)nc4)cc3)CC2)cc1 (stereo not drawn) [Example 66, N-hydroxy-4-(3-(4-(((2-(4-(6-(trifluoromethyl)pyridin-3-yl)phenyl)cyclopropyl)amino)methyl)piperidin-1-yl)propyl)benzamide TFA Salt]	100 nM	19 nM	79%	85%	–
–	–	O=C(NO)c1ccc(CN2CCc3ccc(CNC4CC4c4ccc(F)cc4)cc3C2)cc1 (stereo not drawn) [Example 79, 4-((7-(((2-(4-fluorophenyl)cyclopropyl)amino)methyl)-3,4-dihydroisoquinolin-2(1H)-yl)methyl)-N-hydroxybenzamide TFA Salt]	24 nM	79 nM	18%	6%	39 nM
–	–	O=C(NO)c1ccc(CN2CCn3cc(CNC4CC4c4ccc(F)cc4)nc3C2)cc1 (stereo not drawn) [Example 80, 4-((2-(((2-(4-fluorophenyl)cyclopropyl)amino)methyl)-5,6-dihydroimidazo[1,2-a]pyrazin-7(8H)-yl)methyl)-N-hydroxybenzamide TFA Salt]	68 nM	1500 nM	82%	87%	331 nM
22 nM	–	CN1C(=O)C(C)(C)c2cc(C3CC3NCC3CCN(CCCc4ccc(C(=O)NO)cc4)CC3)ccc21 (stereo not drawn) [Example 81, N-hydroxy-4-(3-(4(((2-(1,3,3,-trimethyl-2-oxoindoline-5-yl)cyclopropyl)amino)methyl)piperidine-1-yl)propyl)benzamide TFA Salt]	125 nM	394 nM	>95/>95%	>95/>95%	–
–	–	O=C(NO)c1ccc(CCC(=O)N2CCC(CNC3CC3c3ccccc3)CC2)cc1 (stereo not drawn) [Example 82, N-hydroxy-4-(3-oxo-3-(4-(((2-phenylcyclopropyl)amino)methyl)piperidin-1-yl)propyl)benzamide TFA Salt]	35 nM	94 nM	77%	72%	619 nM
–	–	O=C(NO)c1ccc(C(=O)NCCN2CCC(CNC3CC3c3ccc(F)c(F)c3)CC2)cc1 (stereo not drawn) [Example 90, N1-(2-(4-(((2-(3,4-difluorophenyl)cyclopropyl)amino)methyl)piperidin-1-yl)ethyl)-N4-hydroxyterephthalamide TFA Salt]	170 nM	21 nM	80%	93%	339 nM
–	–	O=C(NO)c1ccc(OCCNC2CC2c2ccccc2)cc1 (stereo not drawn) [Example 95, N-hydroxy-4-(2-((2-phenylcyclopropyl)amino)ethoxy)benzamide TFA Salt]	350 nM	33 nM	75%	55%	144 nM
–	–	O=C(NO)c1ccc(OCCN2CCC(CNC3CC3c3ccccc3)CC2)cc1 (stereo not drawn) [Example 99, N-hydroxy-4-(2-(4-(((2-phenylcyclopropyl)amino)methyl)piperidin-1-yl)ethoxy)benzamide TFA Salt]	51 nM	4 nM	63%	76%	27 nM
–	–	O=C(NO)c1cnc(NCCN2CCC(CNC3CC3c3ccc(F)cc3)CC2)nc1 (stereo not drawn) [Example 102, 2-((2-(4-(((2-(4-fluorophenyl)cyclopropyl)amino)methyl)piperidin-1-yl)ethyl)amino)-N-hydroxypyrimidine-5-carboxamide TFA Salt]	75 nM	22 nM	>99/>99%	>99/>99%	5 nM
–	–	O=C(NO)c1cc2c(s1)CCN(C(=O)CCCN1CCC(CNC3CC3c3ccc(F)cc3)CC1)C2 (stereo not drawn) [Example 106, 5-(4-(4-(((2-(4-fluorophenyl)cyclopropyl)amino)methyl)piperidin-1-yl)butanoyl)-N-hydroxy-4,5,6,7-tetrahydrothieno[3,2-c]pyridine-2-carboxamide TFA Salt]	35 nM	26 nM	74%	92%	14 nM
> 10000 nM	26 nM	O=C(NO)c1csc(CCCN2CCC(CNC3CC3c3ccccc3)CC2)n1.O=C(O)C(F)(F)F (stereo not drawn) [Example 110, N-hydroxy-2-(3-(4-(((2-phenylcyclopropyl)amino)methyl)piperidin-1-yl)propyl)thiazole-4-carboxamide TFA Salt]	> 10000 nM	–	88%	95%	–
> 10000 nM	26 nM	O=C(NO)c1coc(CCCN2CCC(CNC3CC3c3ccccc3)CC2)n1.O=C(O)C(F)(F)F (stereo not drawn) [Example 113, N-hydroxy-2-(3-(4-(((2-phenylcyclopropyl)amino)methyl)piperidin-1-yl)propyl)oxazole-4-carboxamide TFA Salt]	> 10000 nM	–	78%	76%	–
–	–	Nc1ccccc1NC(=O)c1ccc(CCC(=O)N2CCC(NC3CC3c3ccccc3)CC2)cc1 (stereo not drawn) [Example 133, N-(2-aminophenyl)-4-(3-oxo-3-(4-((2-phenylcyclopropyl)amino)piperidin-1-yl)propyl)benzamide TFA Salt]	> 10000 nM	40 nM	19%	9%	–
